This is an account of results in patent US20060030536A1, “Combination therapies for cancer and proliferative angiopathies” (University of South Florida, priority 2004, published 2006).

The target in series [1] is Stat3 (Homo sapiens, UniProt P40763). To be noted: cited from earlier work.
For series [2], the system named is Jak2. Particulars: cited from earlier work.
The subject of series [3] is HIF-1α. Nature of the series: Western blot of HIF-1α protein in tumor cells. It counts as cell-based, human. To be noted: for HIF-1α protein level: A2058 (also A2056) human melanoma cells, constitutively active c-Src. (A western blot detects proteins with antibodies after separation by electrophoresis.)
The subject of series [4] is VEGF. Nature of the series: Western blot of VEGF protein in tumor cells. It counts as cell-based, human. From the text: […] Fifty […] of nuclear or whole-cell extracts was used for Western blot analysis. HIF-1α rabbit polyclonal antibody (H-206) (1:500 dilution), HIF-1β mouse monoclonal antibody (1:1,500 dilution), AKT1 mouse monoclonal, anti-phospho-AKT rabbit polyclonal, anti-VEGF monoclonal antibody (1:1,000 dilution) were used for the Western blot analyses. Horseradish peroxidase-conjugated sheep anti-mouse and donkey anti-rabbit or anti-goat secondary antibodies were used at 1:2,000 and 1:5,000 dilutions, respectively. The signal was developed with SuperSignal West Pico Chemiluminescent Substrate (PIERCE).

Series [5] has as its system Stat3. As to the kind of experiment: EMSA of Stat3 DNA-binding activity in nuclear extracts. It is filed as cell-based, human. To be noted: for Stat3 DNA-binding activity: A2058 (also A2056) human melanoma cells. The method, then:
Nuclear extracts (1-8 μg of total protein) were incubated with the ^32P-radiolabled hSEE (high-affinity Sis-Inducible Element) oligonucleotide probe. Protein-DNA complexes were resolved by 5% non-denatured polyacrylamide gel electrophoresis (PAGE) and specific STAT/DNA complexes were detected by autoradiography.
On the technique in general: In EMSA bound probe runs differently from free probe, usually more slowly.

Series [6] relates to MDA-MB-468 cells. As to the kind of experiment: Trypan blue dye exclusion assay (cell death). It counts as cell-based, human. Particulars: 48 h. The method, then:
MDA-MB-468 cells were treated with vehicle DMSO (control), 10 or 20 μM LY294002; 0.05 EM JSI-124; 10+0.05 μM LY294002+JSI-124; or 20+0.05 μM LY294002+JSI-124 for 48 h, followed by trypan blue dye exclusion assay. The numbers indicate the percentage of dead cells. Standard deviations are shown with error bars.
The trypan blue dye exclusion assay was performed by mixing 20 μl of cell suspension with 20 μl of 0.4% trypan blue dye before injecting into a hemocytometer and counting. The number of cells that absorbed the dye and those that exclude the dye were counted, from which the percentage of nonviable cell number to total cell number was calculated.
To determine whether the combination treatment is more beneficial than single agent treatment to induce breast cancer cell death, MDA-MB-468 cells were treated with the indicated concentrations of either drug alone or in combinations for 48 h, followed by trypan blue dye incorporation assays.

The subject of series [7] is MDA-MB-468 cells. Nature of the series: TUNEL assay (apoptosis). It counts as cell-based, human. Particulars: single agents: 20 μM LY294002; 0.1 or 0.05 μM JSI-124; 48 h. The method, then:
The assay was performed following manufacturer's instruction using the APO-Direct kit. […] After removing the DNA labeling solution by rinsing cells with Rinsing Buffer, the cells were incubated with the Propidium Iodide/RNase A solution, incubated for 30 min at room temperature in the dark, and then analyzed by flow cytometry within 3 h of staining.

Series [8] has as its system MDA-MB-468 and MDA-MB453 cells. As to the kind of experiment: Flow cytometry cell cycle analysis. It counts as cell-based, human. Particulars: 20 μM LY294002, 0.05 μM JSI-124, 48 h. The protocol: MDA-453 cells were treated with vehicle DMSO (control), 20 μM LY294002; 0.05 μM JSI-124 or 20+0.05 μM LY294002+JSI-124 for 48 h, followed by flow cytometry analysis.
Cell cycle analysis based on DNA content was performed as we described previously. At each time point, cells were harvested, counted, and washed twice with wash buffer (1 mg glucose per ml PBS). Cells (2×10^6) were suspended in 0.5 ml PBS, fixed in 5 ml of 70% ethanol for over night at −20° C., centrifuged, washed once with PBS and resuspended again in 1 ml of propidium iodide staining solution (50 jig propidium iodide, 100 units RNase A and 1 mg glucose per ml PBS), and incubated at room temperature in the dark for 30 min. The cells were then analyzed with FACScan (Becton Dickinson Immunocytometry, Calif.), ModFit LT and WinMDI V.2.8 cell cycle analysis software (Verity Software; Topsham, Me.). The cell cycle distribution is shown as the percentage of cells containing G1, S, G2, and M DNA judged by propidium iodide staining.
To determine the effect of combination treatment on cell cycle changes, MDA-MB-468 and MDA-MB453 cells were treated with the indicated concentrations of LY294002, JSI-124 or their combinations for 48 h, followed by flow cytometry analysis.
A general note: A flow cytometer gives signals particle by particle.

Series [9] relates to PI3k/Akt or Mek/Erk pathways. To be noted: cited from earlier work.
Series [10] concerns AKT1 mRNA. As to the kind of experiment: Microarray gene expression database, AKT1 mRNA. To be noted: MDA-MB435 human breast cancer cell line. It is filed as cell-based.
Setting [11] is: EGF stimulation, DU145 human prostate cancer cells (data not shown).

Sequence of Stat3 (Homo sapiens, UniProt P40763) (P40763 whole entry): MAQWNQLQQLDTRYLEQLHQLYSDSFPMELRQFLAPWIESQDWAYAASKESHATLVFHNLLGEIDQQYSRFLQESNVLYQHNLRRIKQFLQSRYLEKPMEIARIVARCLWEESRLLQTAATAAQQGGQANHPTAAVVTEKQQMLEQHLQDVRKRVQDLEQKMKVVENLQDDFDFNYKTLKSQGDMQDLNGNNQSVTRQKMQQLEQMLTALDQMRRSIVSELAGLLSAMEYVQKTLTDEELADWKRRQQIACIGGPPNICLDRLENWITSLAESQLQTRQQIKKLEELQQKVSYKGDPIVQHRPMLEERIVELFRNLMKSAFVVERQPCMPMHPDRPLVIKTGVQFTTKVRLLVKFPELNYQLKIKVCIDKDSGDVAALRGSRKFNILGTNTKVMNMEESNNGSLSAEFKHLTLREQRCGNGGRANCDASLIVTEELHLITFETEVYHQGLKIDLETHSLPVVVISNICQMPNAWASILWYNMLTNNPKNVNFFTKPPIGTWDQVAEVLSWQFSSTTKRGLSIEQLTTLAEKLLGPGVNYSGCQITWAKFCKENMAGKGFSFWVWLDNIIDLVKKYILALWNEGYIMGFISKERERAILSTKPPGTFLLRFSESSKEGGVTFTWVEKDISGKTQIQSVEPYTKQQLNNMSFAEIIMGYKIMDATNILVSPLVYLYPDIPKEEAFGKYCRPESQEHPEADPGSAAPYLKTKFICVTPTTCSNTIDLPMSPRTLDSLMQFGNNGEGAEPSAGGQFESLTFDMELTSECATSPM

For `CC(=O)OC(C)(C)/C=C/C(=O)[C@](C)(O)[C@H]1[C@H](O)C[C@@]2(C)[C@@H]3CC=C4[C@H](C[C@H](O)C(=O)C4(C)C)[C@]3(C)C(=O)C[C@]12C` [Cucurbitacin B], the Stat3 activation entry in series [1] is “suppress both Stat3 and Jak2 activation”. Moreover, the Jak2 activation result in series [2] was “suppress both Stat3 and Jak2 activation”.

As to `CC(=O)OC(C)(C)/C=C/C(=O)[C@](C)(O)[C@H]1[C@H](O)C[C@@]2(C)[C@@H]3CC=C4[C@@H](C=C(O)C(=O)C4(C)C)[C@]3(C)C(=O)C[C@]12C` [Cucurbitacin E], the Stat3 activation entry in [1] was “suppress both Stat3 and Jak2 activation”. The Jak2 activation result in series [2] was “suppress both Stat3 and Jak2 activation”.

For the compound `CCC(O)[NH+]1CC[NH+](C(O)CC)CC1.[Cl][Pt-2]([Cl])([Cl])([Cl])([Cl])[Cl]` (centres unmarked) [IS3 295], the HIF-1α expression entry in series [3] (DU145 tumor cells) is “reduction in the expression of both HIF-1α and VEGF”. Moreover, the VEGF expression result in [4] (DU145 tumor cells) is “reduction in the expression of both HIF-1α and VEGF”. Also, the “Stat3 activity (DNA-binding)” value in series [5] (DU145 prostate cancer cells) is “reduction in Stat3 activity in a dose-dependent manner”.

Take `CC(C)(O)/C=C/C(=O)[C@](C)(O)C1[C@H](O)C[C@@]2(C)C3CC=C4C(C=C(O)C(=O)C4(C)C)[C@]3(C)C(=O)C[C@]12C` (some centres unmarked) [JSI-124, Cucurbitacin I]: the cell death in [6] (0.05 μM JSI-124 alone) is 7%. For the same compound, the apoptosis induction result in [7] is “Little apoptosis induction”. The “accumulation in G0/G1 phase” value in series [8] is on record as “not either single drug treatment”. The Stat3 activation result in [1] was “suppress both Stat3 and Jak2 activation”. Further, the Jak2 activation entry in series [2] is “suppress both Stat3 and Jak2 activation”. In series [9], the “inhibition of PI3k/Akt or Mek/Erk pathways” value is listed as “does not inhibit the PI3k/Akt or Mek/Erk pathways”.

For `O=c1cc(N2CCOCC2)oc2c(-c3ccccc3)cccc12` [LY294002, 2-(4-morpholinyl)-8-phenyl-4H-1-benzopyran-4-one], the cell death in [6] (20 μM LY294002 alone) was found to be 14%. Besides, the apoptosis induction result in [7] is listed as “Little apoptosis induction”. Further, the “accumulation in G0/G1 phase” value in series [8] is recorded as “not either single drug treatment”.

With `CCN(CC)CCOc1ccc(Nc2ncc3cc(-c4c(Cl)cccc4Cl)c(=O)n(C)c3n2)cc1` [PD166285], in [3], the HIF-1α protein level entry is recorded as “dose-dependent reduction in HIF-1α protein level”. In addition, the “Stat3 DNA-binding activity” value in [5] is reported as “parallel reduction in Stat3 DNA-binding activity”.

Take `Cc1cc(Nc2ncc3cc(-c4c(Cl)cccc4Cl)c(=O)n(C)c3n2)ccc1F` [PD180970]: the HIF-1α protein level entry in [3] is listed as “dose-dependent reduction in HIF-1α protein level”. Further, the “Stat3 DNA-binding activity” value in series [5] is listed as “parallel reduction in Stat3 DNA-binding activity”.

In the case of `C[C@@H]1C[C@@H]([C@H](O)CC2CC(=O)NC(=O)C2)C(=O)[C@@H](C)C1` [cycloheximide], the “IL-6-induced HIF-1α expression” value in [3] (MCF-7 cells, 20 ng/ml IL-6, protein synthesis blocked) was “attenuation of HIF-1α expression”.

Turning to Cucurbitacin Q, the Stat3 activation entry in series [1] is listed as “suppress Stat3 activation”. Also, the Jak2 activation entry in series [2] was “not Jak2 activation”.

As for “Stat3 antisense oligonucleotide: antisense nucleic acid 5′-AAAAAGTGCCCAGATTGCCC-3′ used to knock down Stat3 expression (listed as DNA, chemistry not given here)”, the HIF-1α upregulation result in [3] (setting [11]) was “required for both HIF-1α and VEGF upregulation by EGF stimulation”. In series [4] (setting [11]), the VEGF upregulation result is “required for both HIF-1α and VEGF upregulation by EGF stimulation”. In series [10], the “AKT1 mRNA expression” value is “reduction in AKT1 mRNA expression”.

Consider heregulin, for which the HIF-1α expression result in [3] (MCF-7 cells, heregulin) is on record as “induces HIF-1α expression”. The VEGF expression entry in series [4] (control MCF-7 cells, heregulin) is recorded as “upregulates VEGF expression”. In addition, the “activated Stat3” value in series [5] (MCF-7 cells, heregulin at 100 ng/ml) was “detectable levels of activated Stat3”.
